Measurements reported in US20260062422A1 (Halda Therapeutics OpCo, Inc., priority 2022, published 2026).

Key:
[1] = test system: T-Rex 293 cell line SC3 cells having increased expression of androgen receptor protein due to exposure to doxycycline; assay: Cellular growth inhibition, T-Rex 293 SC3 cells with doxycycline (androgen receptor induced), CellTiter-Glo; assay type: cell-based; settings: 72 h, T-Rex 293 SC3 cells with 10 ng/mL doxycycline (increased androgen receptor expression)
How it was run: (§1)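 With DMSO (0.5%) vehicle as negative control, compounds treated SC3 cells for 72 h in medium containing charcoal-dextran FBS ± doxycycline. This T-Rex 293 clone expresses transfected wild-type AR on induction. Readout: CellTiter-Glo 2.0; GI50 by nonlinear regression.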

VCaP cells = assay: Cellular growth inhibition assay for VCaP cells, CellTiter-Glo; assay type: cell-based, human; settings: Homo sapiens, VCaP, 72 h, 72 hours treatment, CellTiter-Glo 2.0
How it was run: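 GI50 values come from four-parameter curve fits of luminescence data normalized to a zero baseline. Compound, in medium with 0.5% DMSO, was added one day after plating and left for 72 h before CellTiter-Glo 2.0 addition.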

T47D cells = assay: Cellular growth inhibition assay for T47D cells, CellTiter-Glo; assay type: cell-based, human; settings: Homo sapiens, T47D, 72 h, 72 hours treatment, CellTiter-Glo 2.0 cell viability
How it was run: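 Growth inhibition as GI50, fitted with four parameters to CellTiter-Glo luminescence after 72 h of compound exposure (0.5% DMSO). Cells were T47D, grown in insulin-supplemented (0.2 units/mL) DMEM with 10% FBS and treated one day post-seeding.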

[2] = test system: T-Rex 293 cell line SC3 cells lacking increased expression of androgen receptor protein; assay: Cellular growth inhibition, T-Rex 293 SC3 cells without doxycycline, CellTiter-Glo; assay type: cell-based; settings: 72 h, T-Rex 293 SC3 cells not exposed to doxycycline, CellTiter-Glo 2.0
How it was run: as §1

Structure (SMILES)	GI50 (VCaP cells) [nM]	GI50 (T47D cells) [nM]	GI50 [1] [nM]	GI50 [2] [nM]
Cc1sc2c(c1C)C(c1ccc(C#CC3CC4(C3)CN(c3ncc(C(=O)N[C@H]5C(C)(C)[C@H](Oc6ccc(C#N)c(Cl)c6)C5(C)C)cn3)C4)cc1)=N[C@@H](C)c1nnc(C)n1-2 [Compound I-349]	< 500	< 500	< 500	< 500
Cc1sc2c(c1C)C(c1ccc(OC[C@H]3C[C@]4(CCCN(c5ncc(C(=O)N[C@H]6C(C)(C)[C@H](Oc7ccc(C#N)c(Cl)c7)C6(C)C)cn5)C4)C3)cc1)=N[C@@H](C)c1nnc(C)n1-2 [Compound I-350]	< 500	> 3000	< 500	> 3000
Cc1sc2c(c1C)C(c1ccc(OC[C@H]3C[C@@]4(CCCN(c5ncc(C(=O)N[C@H]6C(C)(C)[C@H](Oc7ccc(C#N)c(Cl)c7)C6(C)C)cn5)C4)C3)cc1)=N[C@@H](C)c1nnc(C)n1-2 [Compound I-351]	< 500	> 3000	< 500	> 3000
Cc1sc2c(c1C)C(c1ccc(OC[C@@H]3CCCN(c4ncc(C(=O)N[C@H]5C(C)(C)[C@H](Oc6ccc(C#N)c(Cl)c6)C5(C)C)cn4)C3)cc1)=N[C@@H](C)c1nnc(C)n1-2 [Compound I-352]	< 500	> 3000	< 500	> 3000
Cc1sc2c(c1C)C(c1ccc(CCC[C@@H]3CCCN(c4ncc(C(=O)N[C@H]5C(C)(C)[C@H](Oc6ccc(C#N)c(Cl)c6)C5(C)C)cn4)C3)cc1)=N[C@@H](C)c1nnc(C)n1-2 [Compound I-353]	> 3000	> 3000	< 500	> 3000
Cc1sc2c(c1C)C(c1ccc(CCO[C@H]3CCCN(c4ncc(C(=O)N[C@H]5C(C)(C)[C@H](Oc6ccc(C#N)c(Cl)c6)C5(C)C)cn4)C3)cc1)=N[C@@H](C)c1nnc(C)n1-2 [Compound I-354]	< 500	1500 to 3000	< 500	> 3000
Cc1sc2c(c1C)C(c1ccc(N(C)CC(=O)N3CCC(c4ncc(C(=O)N[C@H]5C(C)(C)[C@H](Oc6ccc(C#N)c(Cl)c6)C5(C)C)cn4)CC3)cc1)=N[C@@H](Cc1ncco1)c1nnc(C)n1-2 [Compound I-355]	> 3000	> 3000	> 3000	> 3000
Cc1sc2c(c1C)C(c1ccc(N(C)CC(=O)N3CCC(c4ncc(C(=O)N[C@H]5C(C)(C)[C@H](Oc6ccc(C#N)c(Cl)c6)C5(C)C)cn4)CC3)cc1)=N[C@H](Cc1ncco1)c1nnc(C)n1-2 [Compound I-356]	< 500	500 to 1500	< 500	> 3000
Cc1sc2c(c1C)C(c1ccc(C(=O)N3CCN(CCc4ncc(C(=O)N[C@H]5C(C)(C)[C@H](Oc6ccc(C#N)c(Cl)c6)C5(C)C)cn4)CC3)cc1)=N[C@H](Cc1ncco1)c1nnc(C)n1-2 [Compound I-357]	> 3000	1500 to 3000	500 to 1500	> 3000
Cc1sc2c(c1C)C(c1ccc(CN3CC(=O)N4C[C@@H](c5ncc(C(=O)N[C@H]6C(C)(C)[C@H](Oc7ccc(C#N)c(Cl)c7)C6(C)C)cn5)C[C@H]4C3=O)cc1)=N[C@@H](Cc1ncco1)c1nnc(C)n1-2 [Compound I-358]	< 500	500 to 1500	< 500	> 3000
Cc1sc2c(c1C)C(c1ccc([C@H]3CCCCN3C(=O)[C@H]3CCCN(c4ncc(C(=O)N[C@H]5C(C)(C)[C@@H](Oc6ccc(C#N)c(Cl)c6)C5(C)C)cn4)C3)cc1)=N[C@@H](Cc1ncco1)c1nnc(C)n1-2 [Compound I-359]	< 500	> 3000	< 500	> 3000
Cc1sc2c(c1C)C(c1ccc([C@@H]3CCCCN3C(=O)[C@H]3CCCN(c4ncc(C(=O)N[C@H]5C(C)(C)[C@@H](Oc6ccc(C#N)c(Cl)c6)C5(C)C)cn4)C3)cc1)=N[C@@H](Cc1ncco1)c1nnc(C)n1-2 [Compound I-360]	< 500	> 3000	< 500	> 3000
Cc1sc2c(c1C)C(c1ccc(CN(C)C(=O)NCc3ncc(C(=O)N[C@H]4C(C)(C)[C@H](Oc5ccc(C#N)c(Cl)c5)C4(C)C)cn3)cc1)=N[C@@H](Cc1ncco1)c1nnc(C)n1-2 [Compound I-361]	1500 to 3000	1500 to 3000	> 3000	> 3000
Cc1sc2c(c1C)C(c1ccc(CCCN(C)C(=O)c3ncc(C(=O)N[C@H]4C(C)(C)[C@H](Oc5ccc(C#N)c(Cl)c5)C4(C)C)cn3)cc1)=N[C@@H](Cc1ncco1)c1nnc(C)n1-2 [Compound I-362]	< 500	500 to 1500	< 500	> 3000
Cc1sc2c(c1C)C(c1ccc(CC(=O)N3CCN(c4ncc(C(=O)N[C@H]5C(C)(C)[C@H](Oc6ccc(C#N)c(Cl)c6)C5(C)C)cn4)CC3)cc1)=N[C@@H](Cc1ncco1)c1nnc(C)n1-2 [Compound I-363]	< 500	500 to 1500	< 500	500 to 1500
Cc1sc2c(c1C)C(c1ccc(C(=O)N3CCC[C@@H](C(=O)c4ncc(C(=O)N[C@H]5C(C)(C)[C@H](Oc6ccc(C#N)c(Cl)c6)C5(C)C)cn4)C3)cc1)=N[C@H](Cc1ncco1)c1nnc(C)n1-2 [Compound I-364]	> 3000	> 3000	< 500	> 3000
Cc1sc2c(c1C)C(c1ccc(CCCC3CC4(C3)CN(c3ncc(C(=O)N[C@H]5C(C)(C)[C@H](Oc6ccc(C#N)c(Cl)c6)C5(C)C)cn3)C4)cc1)=N[C@@H](C)c1nnc(C)n1-2 [Compound I-365]	< 500	< 500	< 500	> 3000
Cc1sc2c(c1C)C(c1ccc(CCC[C@H]3CCCN(c4ncc(C(=O)N[C@H]5C(C)(C)[C@H](Oc6ccc(C#N)c(Cl)c6)C5(C)C)cn4)C3)cc1)=N[C@@H](C)c1nnc(C)n1-2 [Compound I-366]	< 500	> 3000	< 500	> 3000

Continued, in another order:

GI50 (VCaP cells) [nM]	GI50 (T47D cells) [nM]	Structure (SMILES)	GI50 [1] [nM]	GI50 [2] [nM]
< 500	500 to 1500	Cc1sc2c(c1C)C(c1ccc(CCO[C@@H]3CCCN(c4ncc(C(=O)N[C@H]5C(C)(C)[C@H](Oc6ccc(C#N)c(Cl)c6)C5(C)C)cn4)C3)cc1)=N[C@@H](C)c1nnc(C)n1-2 [Compound I-367]	< 500	> 3000
< 500	< 500	Cc1sc2c(c1C)C(c1ccc(CC[C@H]3C[C@@]4(CCCN(c5ncc(C(=O)N[C@H]6C(C)(C)[C@H](Oc7ccc(C#N)c(Cl)c7)C6(C)C)cn5)C4)C3)cc1)=N[C@@H](C)c1nnc(C)n1-2 [Compound I-368]	< 500	> 3000
< 500	> 3000	Cc1sc2c(c1C)C(c1ccc(CC[C@H]3C[C@]4(CCCN(c5ncc(C(=O)N[C@H]6C(C)(C)[C@H](Oc7ccc(C#N)c(Cl)c7)C6(C)C)cn5)C4)C3)cc1)=N[C@@H](C)c1nnc(C)n1-2 [Compound I-369]	< 500	> 3000
< 500	500 to 1500	Cc1sc2c(c1C)C(c1ccc(CC(=O)N3CCC(c4ncc(C(=O)N[C@H]5C(C)(C)[C@H](Oc6ccc(C#N)c(Cl)c6)C5(C)C)cn4)CC3)cc1)=N[C@H](Cc1ncco1)c1nnc(C)n1-2 [Compound I-370]	< 500	> 3000
< 500	500 to 1500	Cc1sc2c(c1C)C(c1ccc(CN(C)C(=O)[C@@H]3CC[C@H](c4ncc(C(=O)N[C@H]5C(C)(C)[C@H](Oc6ccc(C#N)c(Cl)c6)C5(C)C)cn4)C3)cc1)=N[C@@H](Cc1ncco1)c1nnc(C)n1-2 [Compound I-371]	< 500	> 3000
< 500	500 to 1500	Cc1sc2c(c1C)C(c1ccc(CN(C)C(=O)[C@@H]3CC[C@@H](c4ncc(C(=O)N[C@H]5C(C)(C)[C@H](Oc6ccc(C#N)c(Cl)c6)C5(C)C)cn4)C3)cc1)=N[C@@H](Cc1ncco1)c1nnc(C)n1-2 [Compound I-372]	< 500	> 3000
> 3000	> 3000	Cc1sc2c(c1C)C(c1ccc(N(C)CC(=O)NCc3ncc(C(=O)N[C@H]4C(C)(C)[C@H](Oc5ccc(C#N)c(Cl)c5)C4(C)C)cn3)cc1)=N[C@@H](Cc1ncco1)c1nnc(C)n1-2 [Compound I-373]	> 3000	> 3000
< 500	500 to 1500	Cc1sc2c(c1C)C(c1ccc(N(C)CC(=O)NCc3ncc(C(=O)N[C@H]4C(C)(C)[C@H](Oc5ccc(C#N)c(Cl)c5)C4(C)C)cn3)cc1)=N[C@H](Cc1ncco1)c1nnc(C)n1-2 [Compound I-374]	> 3000	> 3000
< 500	< 500	Cc1sc2c(c1C)C(c1ccc(CCCOC3CCN(c4ncc(C(=O)N[C@H]5C(C)(C)[C@H](Oc6ccc(C#N)c(Cl)c6)C5(C)C)cn4)CC3)cc1)=C[C@H](Cc1ccncn1)c1nnc(C)n1-2 [Compound I-375]	< 500	< 500
